The data set can be described thus: Solubility of esylate salt: final concentration of the solution after filtration. The class given is physicochemical. The method, then: A solution was prepared by dissolving excess of Compound A as esylate salt in 3 mL water followed by gently stirring over night. A final concentration of the solution after filtration was monitored to 14 mg/ml at a pH of 2.7.
A solution was prepared by dissolving 112 mg of Compound A as esylate salt in 3 mL sodium phosphate buffer followed by gently stirring over night. A final concentration of the solution after filtration was monitored to 33 mg/ml at a pH of 2.7.
A solution was prepared by dissolving 20 mg of Compound A as esylate salt in 3 mL sodium phosphate buffer followed by gently stirring over night. A final concentration of the solution after filtration was monitored to 1.6 mg/ml at a pH of 6.5.

Usually solubility (thermodynamic) stands for solubility found after equilibrating the solid with the medium. Turning to `CCS(=O)(=O)O.CO/N=C(\N)c1ccc(CNC(=O)C2CCN2C(=O)C(O)c2cc(Cl)cc(OC(F)F)c2)cc1` (stereo not drawn) [Compound A as esylate salt], the solubility (thermodynamic) was determined as 33 mg/mL (pH 2.7, aqueous buffer, thermodynamic from solid, 112 mg in 3 mL sodium phosphate buffer pH 3.1 I = 0.1, stirred over night, at a pH of 2.7); 14 mg/mL (pH 2.7, thermodynamic from solid, excess salt in 3 mL water, stirred over night, at a pH of 2.7); 1.6 mg/mL (pH 6.5, aqueous buffer, thermodynamic from solid, 20 mg in 3 mL sodium phosphate buffer pH 6.9 I = 0.1, stirred over night, at a pH of 6.5).

Source of the values: US20060014734A1, “Immediate release pharmaceutical formulation” (priority 2002, published 2006).
